According to patent US12590087B2, “Inhibiting USP36” (Valo Health, Inc., priority 2019, dated 2026):

Biological target: T1, human USP36 (81-461) (Homo sapiens, UniProt Q9P275)
T1 sequence (Q9P275 81-461): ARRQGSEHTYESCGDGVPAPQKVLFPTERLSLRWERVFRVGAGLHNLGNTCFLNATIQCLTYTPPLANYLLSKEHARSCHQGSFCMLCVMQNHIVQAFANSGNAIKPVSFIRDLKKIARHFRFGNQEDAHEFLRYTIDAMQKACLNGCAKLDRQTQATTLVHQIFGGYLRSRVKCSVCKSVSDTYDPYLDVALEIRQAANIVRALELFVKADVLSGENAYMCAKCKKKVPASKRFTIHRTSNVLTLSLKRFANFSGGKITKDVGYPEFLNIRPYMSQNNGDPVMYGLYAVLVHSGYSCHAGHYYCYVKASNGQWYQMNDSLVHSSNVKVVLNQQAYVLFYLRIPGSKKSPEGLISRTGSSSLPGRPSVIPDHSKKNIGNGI
Experiment: USP36 inhibition biochemical assay
Conditions: read-out: USP 36 IC50; 2 nM human USP36 (81-461), 25 nM Ub-Rh110MP substrate, 30 minutes preincubation with compound, fluorescence rate over 10 minutes
Protocol: Test compounds were serially diluted in DMSO (Sigma, G7516) to obtain 10-point, 3-fold series. […] Enzyme and substrate concentrations and incubation times were optimized for the maximal signal-to-background while maintaining linear initial velocity conditions at a fixed substrate concentration below Km.
Rates were calculated by: rate=((final FLU−initial FLU)/600 seconds) where final FLU=fluorescence at time 10 minutes, initial FLU=fluorescence at time 0 minutes and 600=duration of reaction in seconds.
Data were reported as percent inhibition compared with control wells based on the following equation: % inh=100*((rate−AveLow)/(AveHigh−AveLow)) where rate=measured rate of fluorescence generated during assay, AveLow=average rate of no enzyme control (n=32), and AveHigh=average rate of DMSO control (n=32).
Data were fitted using the Levenburg Marquardt algorithm.

IC50: 198 nM
SMILES: O=C(Nc1snnc1C(=O)Nc1ccc(N2CCCC2)cc1)c1cncc(C(F)(F)F)c1 [Compound 1, N-(4-(pyrrolidin-1-yl)phenyl)-5-(5-(trifluoromethyl)nicotinamido)-1,2,3-thiadiazole-4-carboxamide]
